# Measurements reported in US20110152078A1, “Pesticidal Compound Mixtures” (BAYER CROPSCIENCE AG, priority 2009, published 2011).
# Key:
# Format in all cases: in vivo
# [1] = test system: green peach aphid (Myzus persicae); assay: Myzus persicae test (Example A), spray on infested cabbage leaves; conditions: single compound
# Protocol: (§1) To produce a suitable preparation of active compound, 1 part by weight of active compound is mixed with the stated amount of solvent and emulsifier, and the concentrate is diluted with emulsifier-containing water to the desired concentration.
# (§2) Cabbage leaves (Brassica oleracea) which are heavily infested by the green peach aphid (Myzus persicae) are treated by being sprayed with the preparation of the active compound at the desired concentration.
# (§3) After the specified period of time, the mortality in % is determined. 100% means that all the aphids have been killed; 0% means that none of the aphids have been killed.
# [2] = test system: larvae of the fall army worm (Spodoptera frugiperda); assay: Spodoptera frugiperda test (Example C), sprayed cabbage leaves; conditions: single compound
# Protocol: as §1
# Cabbage leaves (Brassica oleracea) are treated by being sprayed with the preparation of the active compound at the desired concentration and are infested with larvae of the fall army worm (Spodoptera frugiperda) as long as the leaves are still moist.
# (§4) After the specified period of time, the mortality in % is determined. 100% means that all the caterpillars have been killed; 0% means that none of the caterpillars have been killed. According to the present application in this test e.g. the following combinations show a synergistic effect in comparison to the single compounds: […]
# [3] = test system: green peach aphid (Myzus persicae); assay: Myzus persicae test (Example E), spray on infested cabbage leaves; conditions: single compound
# Protocol: as §1, §2, §3
# [4] = test system: cotton aphid (Aphis gossypii); assay: Aphis gossypii test (Example D), spray on infested cotton leaves; conditions: single compound
# Protocol: Solvent: 7 parts by weight of dimethylformamide Emulsifier: 2 parts by weight of alkylaryl polyglycolether
# as §1
# Cotton leaves (Gossypium hirsutum) which are heavily infested by the cotton aphid (Aphis gossypii) are treated by being sprayed with the preparation of the active compound at the desired concentration.
# as §3
# [5] = test system: larvae of the mustard beetle (Phaedon cochleariae); assay: Phaedon cochleariae larvae test (Example B), sprayed cabbage leaves; conditions: 144 h, single compound, after 6 d
# Protocol: as §1
# Cabbage leaves (Brassica oleracea) are treated by being sprayed with the preparation of the active compound at the desired concentration and are infested with larvae of the mustard beetle (Phaedon cochleariae) as long as the leaves are still moist.
# as §4, with “beetle larvae” for “caterpillars”
# [6] = Myzus persicae, 144 h, 500 g/ha, after 6 d
smiles,measurement,setting,value
"Cn1cc(C(=O)Nc2ccc(F)cc2-c2ccc(Cl)c(Cl)c2)c(C(F)F)n1 [Bixafen, bixafen]",Mortality in % after 6 d,[1]; 500 g/ha,0%
same,Mortality in % after 6 d,[2]; 500 g/ha,17%
"CSC1=N[C@@](C)(c2ccccc2)C(=O)N1Nc1ccccc1 [Fenamidone, fenamidone]",mortality at 200 g/ha,"[3]; Myzus persicae, 144 h, 200 g/ha, after 6 d",0%
same,mortality at 200 g/ha,"[4]; Aphis gossypii, 144 h, 200 g/ha, after 6 d",0%
"O=C(NCCc1ncc(C(F)(F)F)cc1Cl)c1ccccc1C(F)(F)F [Fluopyram, fluopyram]",mortality at 500 g/ha,[5]; 500 g/ha,0%
same,mortality at 500 g/ha,[1]; [6],0%
"CO/N=C(/C1=NOCCO1)c1ccccc1Oc1ncnc(Oc2ccccc2Cl)c1F [Fluoxastrobin, fluoxastrobin]",mortality at 500 g/ha,[1]; [6],0%
"CNC(=O)/C(=N/OC)c1ccccc1Oc1ccccc1 [Metominostrobin, metominostrobin]",mortality at 500 g/ha,[1]; [6],0%
"Cc1nn(C)c(F)c1C(=O)Nc1ccccc1C(C)CC(C)C (stereo not drawn) [Penflufen, penflufen]",Mortality in % after 6 d,[3]; 200 g/ha,0%
same,Mortality in % after 6 d,[4]; 200 g/ha,0%
"COC(=O)N(OC)c1ccccc1COc1ccn(-c2ccc(Cl)cc2)n1 [Pyraclostrobin, pyraclostrobin]",mortality at 500 g/ha,[1]; [6],0%
CC1(C)[C@H](C=C(Cl)Cl)[C@H]1C(=O)OCc1c(F)c(F)cc(F)c1F [Transfluthrin],mortality at 10 g/ha,"[3]; Myzus persicae, 144 h, 10 g/ha, after 6 d",0%
same,mortality at 10 g/ha,"[4]; Aphis gossypii, 144 h, 10 g/ha, after 6 d",5%
same,mortality at 20 g/ha,[5]; 20 g/ha,0%
same,mortality at 20 g/ha,"[1]; Myzus persicae, 144 h, 20 g/ha, after 6 d",70%
same,mortality at 100 g/ha,"[1]; Myzus persicae, 144 h, 100 g/ha, after 6 d",80%
same,mortality at 4 g/ha,"[2]; Spodoptera frugiperda, 144 h, 4 g/ha, after 6 d",50%
"CON=C(C(=O)OC)c1ccccc1CON=C(C)c1cccc(C(F)(F)F)c1 [Trifloxystrobin, trifloxystrobin]",mortality at 500 g/ha,[1]; [6],0%
